What was measured:
Format in all cases: binding
[1] = molecular target: Marasmius oreades agglutinin (MOA) (Marasmius oreades, UniProt Q8X123); experiment: CFG glycan microarray v5, biotinylated lectin, Cy5-streptavidin
[2] = molecular target: T1, Cholera Toxin B Subunit (CTB) (Vibrio cholerae, UniProt P01556)
T1 construct: gene ctxB

[3] = molecular target: T2, Psophocarpus tetragonolobus lectin-I (PTL-I/PTA-I) (Psophocarpus tetragonolobus, UniProt O24313); experiment: CFG glycan microarray v5, biotinylated lectin, Cy5-streptavidin
T2 construct: gene WBAI
T2 sequence (O24313 1-242): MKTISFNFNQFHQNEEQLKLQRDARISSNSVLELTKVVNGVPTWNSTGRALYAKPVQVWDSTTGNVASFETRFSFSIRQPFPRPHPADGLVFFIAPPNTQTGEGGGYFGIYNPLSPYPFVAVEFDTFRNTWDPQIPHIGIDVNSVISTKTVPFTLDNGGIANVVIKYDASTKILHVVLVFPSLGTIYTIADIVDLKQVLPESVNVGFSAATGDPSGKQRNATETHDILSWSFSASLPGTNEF

[4] = molecular target: T3, Hippeastrum hybrid Lectin (HHA, HHL) (Hippeastrum hybrid cultivar, UniProt Z9FHC8O5N0); experiment: as above
T3 construct: commercial lectin (EY and Vector), biotinylated
T3 sequence (Z9FHC8O5N0 1-108): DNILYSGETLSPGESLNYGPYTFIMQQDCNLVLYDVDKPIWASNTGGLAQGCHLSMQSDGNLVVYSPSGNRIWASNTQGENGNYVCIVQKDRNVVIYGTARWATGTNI

T1 sequence (P01556 22-124 limits assumed): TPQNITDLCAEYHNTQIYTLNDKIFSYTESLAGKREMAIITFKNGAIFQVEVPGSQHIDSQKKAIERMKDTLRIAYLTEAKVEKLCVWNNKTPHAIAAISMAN
Sequence of Marasmius oreades agglutinin (MOA) (Q8X123 entry or part of it): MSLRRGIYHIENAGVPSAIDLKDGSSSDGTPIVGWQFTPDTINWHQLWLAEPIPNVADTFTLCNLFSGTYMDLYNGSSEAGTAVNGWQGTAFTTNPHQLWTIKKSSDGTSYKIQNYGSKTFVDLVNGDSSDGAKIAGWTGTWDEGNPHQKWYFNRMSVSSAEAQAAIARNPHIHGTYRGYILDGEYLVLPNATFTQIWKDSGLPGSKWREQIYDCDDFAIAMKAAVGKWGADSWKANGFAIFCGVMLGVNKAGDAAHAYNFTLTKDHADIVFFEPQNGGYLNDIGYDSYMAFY

## C[C@@H]1O[C@@H](O[C@H]2C(O)O[C@H](CO)[C@H](O)[C@@H]2O[C@H]2O[C@H](CO)[C@H](O)[C@H](O)[C@H]2O)[C@@H](O)[C@H](O)[C@@H]1O (stereo partly shown) [B trisaccharide]
[1]
  CFG glycan microarray v5, biotinylated lectin, Cy5-streptavidin: This motif lies within the B trisaccharide, which is preferentially bound by this lectin

## CC(=O)N[C@H]1[C@H](O[C@@H]2[C@H](O[C@]3(C(=O)O)C[C@H](O)[C@@H](NC(C)=O)[C@H]([C@H](O)[C@H](O)CO)O3)[C@@H](O)[C@H](O[C@H]3[C@H](O)[C@@H](O)C(O)O[C@@H]3CO)O[C@@H]2CO)O[C@H](CO)[C@H](O)[C@@H]1O[C@@H]1O[C@H](CO)[C@H](O)[C@H](O)[C@H]1O (stereo partly shown) [GM1]
[2]
  CFG glycan microarray v5, biotinylated lectin, Cy5-streptavidin: Our analysis found only two glycan binders, GM1 and fucosylated GM1

## CC(=O)N[C@H]1[C@@H](O[C@H]2[C@@H](O)[C@@H](CO)OC(O)[C@@H]2O[C@@H]2O[C@@H](C)[C@@H](O)[C@@H](O)[C@@H]2O)O[C@H](CO)[C@H](O)[C@@H]1O (stereo partly shown) [blood group A trisaccharide]
[3]
  CFG glycan microarray v5, biotinylated lectin, Cy5-streptavidin: we found blood group A trisaccharides

## OC[C@H]1O[C@H](OC[C@H]2OC(O)[C@@H](O)[C@@H](O[C@H]3O[C@H](CO)[C@@H](O)[C@H](O)[C@@H]3O)[C@@H]2O)[C@@H](O)[C@@H](O)[C@@H]1O (stereo partly shown) [mannose core trisaccharide]
[4]
  CFG glycan microarray v5, biotinylated lectin, Cy5-streptavidin: This lectin shows the highest affinity for the mannose core trisaccharide
